# Results from US20070167452A1, “Therapeutic amide derivatives” (PFIZER, INC., priority 2004, published 2007).
row,melting point [°C],Compound
1,189.5,"O=C(NC[C@]1(O)CC[C@H](COc2ccccc2)CC1)c1ccc(O)cc1 [Example 8, 4-Hydroxy-N-{[trans-1-hydroxy-4-(phenoxymethyl)cyclohexyl]methyl}benzamide]"
2,153.7,"O=C(NC[C@]1(O)CC[C@H](COc2c(F)cccc2F)CC1)c1ccc(O)cc1 [Example 12, N-({trans-4-[(2,6-Difluorophenoxy)methyl]-1-hydroxycyclohexyl}methyl)-4-hydroxybenzamide]"
3,159,"O=C(NC[C@]1(O)CC[C@H](COc2ccccc2Cl)CC1)c1ccc(O)cc1 [Example 14, N-({trans-4-[(2-Chlorophenoxy)methyl]-1-hydroxycyclohexyl}methyl)-4-hydroxybenzamide]"
4,190.3,"COc1cccc(OC[C@H]2CC[C@@](O)(CNC(=O)c3ccc(O)cc3)CC2)c1 [Example 20, 4-Hydroxy-N-({trans-1-hydroxy-4-[(3-methoxyphenoxy)methyl]cyclohexyl}methyl)benzamide]"
5,164.1,"O=C(NC[C@]1(O)CC[C@H](COCc2ccc(Cl)cc2)CC1)c1ccc(O)cc1 [Example 25, N-[(trans-4-{[(4-Chlorobenzyl)oxy]methyl}-1-hydroxycyclohexyl)methyl]-4-hydroxybenzamide]"
6,168.7,"O=C(NC[C@]1(O)CC[C@H](CCOc2ccccc2)CC1)c1ccc(O)cc1 [Example 26, 4-Hydroxy-N-{[trans-1-hydroxy-4-(2-phenoxyethyl)cyclohexyl]methyl}benzamide]"
7,178.9,"O=C(NC[C@]1(O)CC[C@H](CCOc2ccccc2F)CC1)c1ccc(O)cc1 [Example 27, N-({trans-4-[2-(2-Fluorophenoxy)ethyl]-1-hydroxycyclohexyl}methyl)-4-hydroxybenzamide]"
8,134.5,"O=C(NC[C@]1(O)CC[C@H](CCOc2cccc(F)c2)CC1)c1ccc(O)cc1 [Example 28, N-({trans-4-[2-(3-Fluorophenoxy)ethyl]-1-hydroxycyclohexyl}methyl)-4-hydroxybenzamide]"
9,177.5,"O=C(NC[C@]1(O)CC[C@H](CCOc2ccc(F)cc2)CC1)c1ccc(O)cc1 [Example 29, N-({trans-4-[2-(4-Fluorophenoxy)ethyl]-1-hydroxycyclohexyl}methyl)-4-hydroxybenzamide]"
10,196.6,"O=C(NC[C@]1(O)CC[C@@H](Oc2ccc(Cl)cc2)CC1)c1ccc(O)cc1 [Example 32, N-{[cis-4-(4-Chlorophenoxy)-1-hydroxycyclohexyl]methyl}-4-hydroxybenzamide]"
11,122.1,"O=C(NC[C@]1(O)CC[C@H](OCc2ccc(F)cc2)CC1)c1ccc(O)cc1 [Example 47, N-({trans-4-[(4-Fluorobenzyl)oxy]-1-hydroxycyclohexyl}methyl)-4-hydroxybenzamide]"
12,138.2,O=C(NC[C@]1(O)CC[C@H](OCc2cccc(F)c2)CC1)c1ccc(O)c(F)c1 [Example 49]
13,184.7,"O=C(NC[C@]1(O)CC[C@H](CCOc2ccccc2F)CC1)c1ccc(O)c(F)c1 [Example 51, 3-Fluoro-N-({trans-4-[2-(2-fluorophenoxy)ethyl]-1-hydroxycyclohexyl}methyl)-4-hydroxybenzamide]"
14,170.5,"O=C(NC[C@H]1CC[C@@H](Oc2ccc(F)cc2)CC1)c1ccc(O)cc1 [Example 54, N-{[cis-4-(4-Fluorophenoxy)cyclohexyl]methyl}-4-hydroxybenzamide]"
15,149.5,"O=C(NC[C@H]1CC[C@@H](Oc2ccc(F)cc2)CC1)c1ccc(O)c(F)c1 [Example 55, 3-Fluoro-N-{[cis-4-(4-fluorophenoxy)cyclohexyl]methyl}-4-hydroxybenzamide]"
16,145,"O=C(NC[C@H]1CC[C@@H](OCCc2ccccc2)CC1)c1cn[nH]c1 [Example 72, N-{[cis-4-(2-Phenylethoxy)cyclohexyl]methyl}-1H-pyrazole-4-carboxamide]"

row,melting point [°C],Compound
1,155.7,"O=C(NC[C@H]1CC[C@@H](CCOc2ccccc2)CC1)c1cn[nH]c1 [Example 77, N-{[cis-4-(2-Phenoxyethyl)cyclohexyl]methyl}-1H-pyrazole-4-carboxamide]"
2,189.8,"O=C(NC[C@H]1CC[C@@H](COc2ccccc2)CC1)c1ccc(O)nc1 [Example 82, 6-Hydroxy-N-{[cis-4-(phenoxymethyl)cyclohexyl]methyl}nicotinamide]"
3,199.9,"O=C(NC[C@H]1CC[C@@H](CCOc2ccccc2)CC1)c1ccnc(O)c1 [Example 83, 2-Hydroxy-N-{[cis-4-(2-phenoxyethyl)cyclohexyl]methyl}isonicotinamide]"
4,167.6,"O=C(NC[C@H]1CC[C@@H](CCOc2ccccc2)CC1)c1ccc(O)nc1 [Example 84, 6-Hydroxy-N-{[cis-4-(2-phenoxyethyl)cyclohexyl]methyl}nicotinamide]"
5,130.5,"O=C(NC[C@H]1CC[C@@H](CCOc2ccccc2)CC1)c1ccn[nH]1 [Example 85, N-{[cis-4-(2-Phenoxyethyl)cyclohexyl]methyl}-1H-pyrazole-5-carboxamide]"
6,169.6,"O=C(NC[C@H]1CC[C@@H](CCOc2ccccc2)CC1)c1c[nH]cn1 [Example 86, N-{[cis-4-(2-Phenoxyethyl)cyclohexyl]methyl}-1H-imidazole-4-carboxamide]"
7,177.5,"O=C(NC[C@H]1CC[C@@H](CCOc2ccccc2)CC1)c1ccc(=O)[nH]n1 [Example 93, 6-Oxo-N-{[cis-4-(2-phenoxyethyl)cyclohexyl]methyl}-1,6-dihydropyridazine-3-carboxamide]"
8,121,"O=C(NC[C@H]1CC[C@@H](CCOc2ccccc2)CC1)c1cc[nH]c1 [Example 96, N-{[cis-4-(2-Phenoxyethyl)cyclohexyl]methyl}-1H-pyrrole-3-carboxamide]"
9,139.8,"O=C(NC[C@H]1CC[C@@H](COc2ccccc2F)CC1)c1cn[nH]c1 [Example 100, N-({cis-4-[(2-Fluorophenoxy)methyl]cyclohexyl}methyl)-1H-pyrazole-4-carboxamide]"
10,159.9,"O=C(NC[C@H]1CC[C@@H](CCOc2ccccc2)CC1)c1ccc2[nH]c(=O)sc2c1 [Example 101, 2-Oxo-N-{[cis-4-(2-phenoxyethyl)cyclohexyl]methyl}-2,3-dihydro-1,3-benzothiazole-6-carboxamid]"
11,129.3,"Nc1n[nH]cc1C(=O)NC[C@H]1CC[C@@H](CCOc2ccccc2)CC1 [Example 102, 3-Amino-N-{[cis-4-(2-phenoxyethyl)cyclohexyl]methyl)-1H-pyrazole-4-carboxamide]"
12,144.5,"O=C(NC[C@H]1CC[C@@H](CCOc2ccccc2)CC1)c1ccc2[nH]ncc2c1 [Example 103, N-{[cis-4-(2-Phenoxyethyl)cyclohexyl]methyl}-1H-indazole-5-carboxamide]"
13,141.2,"O=C(NC[C@H]1CC[C@@H](CCOc2ccccc2)CC1)c1c[nH]nn1 [Example 104, N-{[cis-4-(2-Phenoxyethyl)cyclohexyl]methyl}-1H-1,2,3-triazole-4-carboxamide]"
14,147.1,"O=C(NC[C@H]1CC[C@@H](COc2ccc(F)cc2)CC1)c1cn[nH]c1 [Example 109, N-({cis-4-[(4-Fluorophenoxy)methyl]cyclohexyl}methyl)-1H-pyrazole-4-carboxamide]"
15,188.5,"O=C1CCc2cc(C(=O)NC[C@H]3CC[C@@H](Cc4ccccc4)CC3)ccc2N1 [Example 118, N-[(cis-4-Benzylcyclohexyl)methyl]-2-oxo-1,2,3,4-tetrahydroquinoline-6-carboxamide]"
16,236.7,"O=C(NC[C@H]1CC[C@@H](Cc2ccccc2)CC1)c1ccc2nc(O)ccc2c1 [Example 122, N-[(cis-4-Benzylcyclohexyl)methyl]-2-hydroxyquinoline-6-carboxamide]"
